Active and inactive are the calls of the source. No cut-off for these calls is given here.
Legend:
[1] = molecular target: T1, SWI/SNF-related matrix-associated actin-dependent regulator of chromatin subfamily A member 4 (Homo sapiens, UniProt P51532); assay: Inhibition of His6-tagged human recombinant SMARCA4 bromodomain expressed in Escherichia coli BL21(DE3)-R3-pRARE2 cells after 30 mins using biotinylated ligand by Alpha screen displacement assay
[2] = molecular target: T2, Protein polybromo-1 (Homo sapiens, UniProt Q86U86)
T2 sequence (Q86U86 whole entry, canonical isoform): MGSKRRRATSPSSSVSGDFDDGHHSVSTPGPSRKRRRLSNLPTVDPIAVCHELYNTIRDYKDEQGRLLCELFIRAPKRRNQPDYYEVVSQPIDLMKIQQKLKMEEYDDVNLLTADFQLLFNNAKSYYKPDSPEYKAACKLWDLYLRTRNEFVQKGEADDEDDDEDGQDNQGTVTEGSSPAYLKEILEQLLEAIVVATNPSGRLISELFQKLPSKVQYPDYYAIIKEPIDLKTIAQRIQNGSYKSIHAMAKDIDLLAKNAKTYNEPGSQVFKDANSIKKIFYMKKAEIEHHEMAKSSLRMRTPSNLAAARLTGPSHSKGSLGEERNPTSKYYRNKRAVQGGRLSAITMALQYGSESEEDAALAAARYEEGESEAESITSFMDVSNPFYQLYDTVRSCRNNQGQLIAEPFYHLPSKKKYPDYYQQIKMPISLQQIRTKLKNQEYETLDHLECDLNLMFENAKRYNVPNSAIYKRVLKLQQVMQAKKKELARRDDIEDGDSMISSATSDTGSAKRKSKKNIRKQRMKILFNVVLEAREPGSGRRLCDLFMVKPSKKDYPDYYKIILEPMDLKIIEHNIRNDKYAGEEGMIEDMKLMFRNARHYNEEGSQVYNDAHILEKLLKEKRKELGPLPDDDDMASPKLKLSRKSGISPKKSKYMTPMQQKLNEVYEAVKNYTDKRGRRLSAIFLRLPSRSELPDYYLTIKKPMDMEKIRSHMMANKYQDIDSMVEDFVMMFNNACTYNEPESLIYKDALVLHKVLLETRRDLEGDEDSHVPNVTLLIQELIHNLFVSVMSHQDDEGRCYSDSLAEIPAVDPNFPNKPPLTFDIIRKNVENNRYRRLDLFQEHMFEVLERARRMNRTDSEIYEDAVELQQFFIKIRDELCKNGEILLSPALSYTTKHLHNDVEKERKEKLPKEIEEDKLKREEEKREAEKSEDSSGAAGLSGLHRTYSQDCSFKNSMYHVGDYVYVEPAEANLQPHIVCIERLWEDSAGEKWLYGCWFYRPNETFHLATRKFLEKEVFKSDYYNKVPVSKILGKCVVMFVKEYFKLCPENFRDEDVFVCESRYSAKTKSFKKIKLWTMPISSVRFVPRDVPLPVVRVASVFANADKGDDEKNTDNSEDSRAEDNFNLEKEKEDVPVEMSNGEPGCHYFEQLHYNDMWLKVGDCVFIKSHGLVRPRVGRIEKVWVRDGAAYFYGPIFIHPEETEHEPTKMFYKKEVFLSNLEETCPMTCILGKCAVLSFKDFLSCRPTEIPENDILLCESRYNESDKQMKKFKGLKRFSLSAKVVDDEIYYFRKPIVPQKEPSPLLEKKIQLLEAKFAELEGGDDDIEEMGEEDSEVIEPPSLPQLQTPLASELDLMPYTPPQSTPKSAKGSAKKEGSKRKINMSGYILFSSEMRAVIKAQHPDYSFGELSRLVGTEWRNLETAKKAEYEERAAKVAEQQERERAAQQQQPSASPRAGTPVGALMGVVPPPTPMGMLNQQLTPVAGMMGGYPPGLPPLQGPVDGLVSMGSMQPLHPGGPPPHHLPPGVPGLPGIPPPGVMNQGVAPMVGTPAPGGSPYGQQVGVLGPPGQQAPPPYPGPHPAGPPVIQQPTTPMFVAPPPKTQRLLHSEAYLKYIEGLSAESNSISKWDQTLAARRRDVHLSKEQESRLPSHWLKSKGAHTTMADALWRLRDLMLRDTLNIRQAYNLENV
Description: Binding affinity to His6-tagged human recombinant PB1 bromodomain isoform 5 expressed in Escherichia coli BL21(DE3)-R3-pRARE2 cells assessed as change in melting temperature at 10 uM by SyproOrange dye based DSF thermal shift assay

[3] = molecular target: T2, Protein polybromo-1; assay: Binding affinity to His6-tagged human recombinant PB1 bromodomain isoform 5 expressed in Escherichia coli BL21(DE3)-R3-pRARE2 cells by VP-ITC microcalorimetry
[4] = molecular target: T1, SWI/SNF-related matrix-associated actin-dependent regulator of chromatin subfamily A member 4; assay: Binding affinity to His6-tagged human recombinant SMARCA4 bromodomain expressed in Escherichia coli BL21(DE3)-R3-pRARE2 cells assessed as change in melting temperature at 10 uM by SyproOrange dye based DSF thermal shift assay
[5] = molecular target: SWI/SNF-related matrix-associated actin-dependent regulator of chromatin subfamily A member 2 (Homo sapiens) (UniProt P51531); assay: Binding affinity to His6-tagged human recombinant SMARCA2A bromodomain expressed in Escherichia coli BL21(DE3)-R3-pRARE2 cells assessed as change in melting temperature at 10 uM by SyproOrange dye based DSF thermal shift assay
Sequence of SWI/SNF-related matrix-associated actin-dependent regulator of chromatin subfamily A member 2 (Homo sapiens) (P51531 whole entry, the tested form may be a part): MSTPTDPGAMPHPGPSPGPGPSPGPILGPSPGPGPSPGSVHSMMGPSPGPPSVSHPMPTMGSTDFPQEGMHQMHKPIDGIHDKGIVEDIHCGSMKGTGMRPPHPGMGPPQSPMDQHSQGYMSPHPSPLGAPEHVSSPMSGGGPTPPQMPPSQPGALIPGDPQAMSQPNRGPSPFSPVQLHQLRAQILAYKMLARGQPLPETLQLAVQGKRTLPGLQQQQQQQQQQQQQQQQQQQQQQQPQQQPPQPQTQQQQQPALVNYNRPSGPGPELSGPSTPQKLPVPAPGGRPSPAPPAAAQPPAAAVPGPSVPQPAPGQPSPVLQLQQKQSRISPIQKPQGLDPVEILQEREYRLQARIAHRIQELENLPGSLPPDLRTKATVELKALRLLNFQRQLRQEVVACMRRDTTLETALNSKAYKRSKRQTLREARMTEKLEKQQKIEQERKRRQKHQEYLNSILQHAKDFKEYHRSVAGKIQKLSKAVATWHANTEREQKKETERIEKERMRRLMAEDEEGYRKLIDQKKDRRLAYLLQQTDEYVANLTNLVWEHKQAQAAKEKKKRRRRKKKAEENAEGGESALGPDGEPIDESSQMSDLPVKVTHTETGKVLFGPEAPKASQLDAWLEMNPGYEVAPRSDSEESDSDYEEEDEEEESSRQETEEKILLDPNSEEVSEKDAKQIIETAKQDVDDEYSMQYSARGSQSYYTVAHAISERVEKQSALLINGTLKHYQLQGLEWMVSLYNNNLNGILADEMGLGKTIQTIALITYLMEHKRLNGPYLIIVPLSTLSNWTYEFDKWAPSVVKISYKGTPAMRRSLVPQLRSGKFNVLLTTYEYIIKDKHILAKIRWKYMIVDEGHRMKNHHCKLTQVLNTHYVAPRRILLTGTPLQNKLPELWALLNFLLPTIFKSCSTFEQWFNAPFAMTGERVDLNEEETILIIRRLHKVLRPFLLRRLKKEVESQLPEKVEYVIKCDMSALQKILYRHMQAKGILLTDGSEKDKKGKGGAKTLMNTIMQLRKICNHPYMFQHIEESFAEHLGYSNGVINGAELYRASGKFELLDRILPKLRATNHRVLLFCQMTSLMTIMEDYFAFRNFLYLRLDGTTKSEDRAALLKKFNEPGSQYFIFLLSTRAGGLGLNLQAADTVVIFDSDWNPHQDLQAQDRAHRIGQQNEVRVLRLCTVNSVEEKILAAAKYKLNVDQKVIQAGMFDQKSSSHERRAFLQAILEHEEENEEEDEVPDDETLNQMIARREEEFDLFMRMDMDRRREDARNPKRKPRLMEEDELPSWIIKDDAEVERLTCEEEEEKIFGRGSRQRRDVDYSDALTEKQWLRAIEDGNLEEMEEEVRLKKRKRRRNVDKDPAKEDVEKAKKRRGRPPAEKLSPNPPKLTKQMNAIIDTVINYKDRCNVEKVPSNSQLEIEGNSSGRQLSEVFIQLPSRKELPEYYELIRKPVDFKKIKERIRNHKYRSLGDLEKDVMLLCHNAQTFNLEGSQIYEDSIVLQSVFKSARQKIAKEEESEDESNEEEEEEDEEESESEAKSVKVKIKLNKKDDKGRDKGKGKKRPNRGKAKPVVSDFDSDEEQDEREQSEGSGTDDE

[6] = molecular target: SWI/SNF-related matrix-associated actin-dependent regulator of chromatin subfamily A member 2 (Homo sapiens) (UniProt P51531); assay: Binding affinity to His6-tagged human recombinant SMARCA2B bromodomain expressed in Escherichia coli BL21(DE3)-R3-pRARE2 cells assessed as change in melting temperature at 10 uM by SyproOrange dye based DSF thermal shift assay
[7] = molecular target: Histone acetyltransferase KAT2B (Homo sapiens) (UniProt Q92831); assay: Binding affinity to His6-tagged human recombinant PCAF bromodomain expressed in Escherichia coli BL21(DE3)-R3-pRARE2 cells assessed as change in melting temperature at 10 uM by SyproOrange dye based DSF thermal shift assay
[8] = molecular target: Bromodomain-containing protein 4 (Homo sapiens) (UniProt O60885); assay: Binding affinity to His6-tagged human recombinant BRD4 bromodomain 1 expressed in Escherichia coli BL21(DE3)-R3-pRARE2 cells assessed as change in melting temperature at 10 uM by SyproOrange dye based DSF thermal shift assay
[9] = molecular target: CREB-binding protein (Homo sapiens) (UniProt Q92793); assay: Binding affinity to His6-tagged human recombinant CREBBP bromodomain expressed in Escherichia coli BL21(DE3)-R3-pRARE2 cells assessed as change in melting temperature at 10 uM by SyproOrange dye based DSF thermal shift assay
[10] = molecular target: T3, E3 ubiquitin-protein ligase TRIM33 (Homo sapiens) (UniProt Q9UPN9); assay: Binding affinity to His6-tagged human recombinant TRIM33B bromodomain expressed in Escherichia coli BL21(DE3)-R3-pRARE2 cells assessed as change in melting temperature at 10 uM by SyproOrange dye based DSF thermal shift assay
T3 sequence (whole entry): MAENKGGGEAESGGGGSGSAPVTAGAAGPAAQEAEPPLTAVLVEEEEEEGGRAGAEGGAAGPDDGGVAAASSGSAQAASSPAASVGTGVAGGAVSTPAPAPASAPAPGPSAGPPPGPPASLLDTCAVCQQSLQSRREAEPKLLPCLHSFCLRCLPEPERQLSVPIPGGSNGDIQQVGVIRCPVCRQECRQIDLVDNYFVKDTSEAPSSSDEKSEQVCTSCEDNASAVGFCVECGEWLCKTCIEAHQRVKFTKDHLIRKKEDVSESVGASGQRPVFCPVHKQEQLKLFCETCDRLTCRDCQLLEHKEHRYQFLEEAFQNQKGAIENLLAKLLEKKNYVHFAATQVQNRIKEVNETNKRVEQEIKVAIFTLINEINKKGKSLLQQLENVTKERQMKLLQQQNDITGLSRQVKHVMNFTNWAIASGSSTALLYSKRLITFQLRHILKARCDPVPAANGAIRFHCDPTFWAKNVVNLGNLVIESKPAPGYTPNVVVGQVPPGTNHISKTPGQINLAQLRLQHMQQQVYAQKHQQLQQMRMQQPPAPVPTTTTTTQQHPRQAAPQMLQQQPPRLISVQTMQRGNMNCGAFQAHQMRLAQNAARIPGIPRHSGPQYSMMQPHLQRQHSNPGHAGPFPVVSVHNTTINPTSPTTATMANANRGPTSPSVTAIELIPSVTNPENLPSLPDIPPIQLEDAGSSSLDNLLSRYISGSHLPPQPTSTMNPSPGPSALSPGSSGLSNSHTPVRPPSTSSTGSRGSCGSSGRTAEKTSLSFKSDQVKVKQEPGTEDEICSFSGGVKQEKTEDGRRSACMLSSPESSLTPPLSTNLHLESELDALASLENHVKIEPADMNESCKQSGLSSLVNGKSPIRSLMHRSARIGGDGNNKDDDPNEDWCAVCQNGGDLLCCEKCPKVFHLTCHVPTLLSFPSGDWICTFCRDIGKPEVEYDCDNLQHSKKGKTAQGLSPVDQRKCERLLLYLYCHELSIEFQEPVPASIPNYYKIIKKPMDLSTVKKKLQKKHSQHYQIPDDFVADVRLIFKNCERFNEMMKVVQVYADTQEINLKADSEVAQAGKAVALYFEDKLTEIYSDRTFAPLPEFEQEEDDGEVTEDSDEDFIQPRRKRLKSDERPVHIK

[11] = molecular target: SWI/SNF-related matrix-associated actin-dependent regulator of chromatin subfamily A member 2 (Homo sapiens) (UniProt P51531); assay: Inhibition of GFP-fused N-terminal full length human recombinant Wild type SMARCA2 transfected in human U2OS cells assessed as displacement of SMARCA2 from chromatin by measuring FRAP recovery time at 1 to 5 uM by laser scanning inverted microscopy relative to control; format: cell-based
[12] = Solubility of the compound in DMSO; format: physicochemical
[13] = molecular target: T2, Protein polybromo-1; remark: listed apart in the source
Description: Binding affinity to His6-tagged human recombinant PB1 bromodomain isoform 2 expressed in Escherichia coli BL21(DE3)-R3-pRARE2 cells assessed as change in melting temperature at 10 uM by SyproOrange dye based DSF thermal shift assay

[14] = molecular target: T2, Protein polybromo-1; remark: listed apart in the source
Description: Binding affinity to His6-tagged human recombinant PB1 bromodomain isoform 3 expressed in Escherichia coli BL21(DE3)-R3-pRARE2 cells assessed as change in melting temperature at 10 uM by SyproOrange dye based DSF thermal shift assay

[15] = molecular target: T2, Protein polybromo-1; remark: listed apart in the source
Description: Binding affinity to His6-tagged human recombinant PB1 bromodomain 4 expressed in Escherichia coli BL21(DE3)-R3-pRARE2 cells assessed as change in melting temperature at 10 uM by SyproOrange dye based DSF thermal shift assay

[16] = molecular target: T1, SWI/SNF-related matrix-associated actin-dependent regulator of chromatin subfamily A member 4; assay: biochemical

T1 sequence (P51532 whole entry): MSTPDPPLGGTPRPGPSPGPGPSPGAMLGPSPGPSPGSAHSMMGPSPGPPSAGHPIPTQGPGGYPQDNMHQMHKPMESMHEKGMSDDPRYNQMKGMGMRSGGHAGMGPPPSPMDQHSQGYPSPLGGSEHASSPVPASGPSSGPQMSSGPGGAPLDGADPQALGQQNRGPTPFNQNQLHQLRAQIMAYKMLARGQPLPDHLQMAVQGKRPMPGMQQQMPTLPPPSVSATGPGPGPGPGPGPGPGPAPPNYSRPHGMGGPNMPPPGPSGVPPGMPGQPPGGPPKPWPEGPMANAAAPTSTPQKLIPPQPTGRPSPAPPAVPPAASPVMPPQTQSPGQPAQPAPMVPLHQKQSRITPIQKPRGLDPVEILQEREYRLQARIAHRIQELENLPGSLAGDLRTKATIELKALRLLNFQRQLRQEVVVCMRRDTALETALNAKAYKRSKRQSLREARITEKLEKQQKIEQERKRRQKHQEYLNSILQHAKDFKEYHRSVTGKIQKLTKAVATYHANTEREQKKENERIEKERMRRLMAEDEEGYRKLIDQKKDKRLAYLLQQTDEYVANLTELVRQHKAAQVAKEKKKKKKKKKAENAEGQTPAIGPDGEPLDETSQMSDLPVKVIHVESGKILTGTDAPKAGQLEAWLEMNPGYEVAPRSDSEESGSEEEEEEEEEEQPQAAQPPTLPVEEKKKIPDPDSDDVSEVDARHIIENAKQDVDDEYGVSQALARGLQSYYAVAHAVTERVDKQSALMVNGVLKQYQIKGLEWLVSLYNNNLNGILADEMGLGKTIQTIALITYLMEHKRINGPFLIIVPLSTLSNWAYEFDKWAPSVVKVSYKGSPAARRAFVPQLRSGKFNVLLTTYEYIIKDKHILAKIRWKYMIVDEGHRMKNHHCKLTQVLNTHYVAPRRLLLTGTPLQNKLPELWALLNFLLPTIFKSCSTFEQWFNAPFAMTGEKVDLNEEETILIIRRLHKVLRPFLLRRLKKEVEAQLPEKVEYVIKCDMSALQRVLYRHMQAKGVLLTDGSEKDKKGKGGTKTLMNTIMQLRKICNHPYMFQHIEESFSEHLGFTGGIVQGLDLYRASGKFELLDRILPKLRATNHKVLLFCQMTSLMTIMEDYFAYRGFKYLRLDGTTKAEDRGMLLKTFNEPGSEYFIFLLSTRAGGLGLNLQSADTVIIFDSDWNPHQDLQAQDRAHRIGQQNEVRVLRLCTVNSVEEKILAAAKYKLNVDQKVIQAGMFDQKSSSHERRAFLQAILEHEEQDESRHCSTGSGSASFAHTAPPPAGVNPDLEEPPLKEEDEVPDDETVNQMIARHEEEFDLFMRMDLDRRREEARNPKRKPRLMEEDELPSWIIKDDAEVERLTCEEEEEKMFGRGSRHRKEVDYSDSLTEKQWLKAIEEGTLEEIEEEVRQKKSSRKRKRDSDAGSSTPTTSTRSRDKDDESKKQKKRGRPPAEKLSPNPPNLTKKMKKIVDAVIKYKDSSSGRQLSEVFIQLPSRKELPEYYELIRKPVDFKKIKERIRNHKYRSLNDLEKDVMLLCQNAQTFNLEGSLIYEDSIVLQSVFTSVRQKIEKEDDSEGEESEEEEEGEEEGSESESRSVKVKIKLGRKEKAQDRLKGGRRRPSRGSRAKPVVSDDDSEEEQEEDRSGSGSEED

Compound	ΔTm [2] [°C]	ΔTm [4] [°C]	ΔTm [5] [°C]	ΔTm [6] [°C]	ΔTm [13] [°C]	ΔTm [14] [°C]	ΔTm [15] [°C]	also measured
CN(C)/C=C1\CCn2c1nc(=O)c1ccccc12	4.2	–	–	–	–	–	–	IC50 [1]: 11 µM
O=c1nc2n(c3cccc(Cl)c13)CC/C2=C\N1CCOCC1	7.4	2.7	2.8	1.7	1.9	0.4	0.3	–
O=c1nc2n(c3ccccc13)CC/C2=C\N1CCOCC1	4.7	–	–	–	–	–	–	–
O=c1nc2n(c3cccc(Cl)c13)CC/C2=C\C1CCOCC1	8.2	2.8	3.4	2.3	3.4	1.6	1.2	–
CCN1CCN(/C=C2\CCn3c2nc(=O)c2ccccc23)CC1	4.3	–	–	–	–	–	–	IC50 [1]: 6.9 µM
CC(C)N(/C=C1\CCn2c1nc(=O)c1ccccc12)C(C)C	1.1	–	–	–	–	–	–	–
CN1CCN(/C=C2\CCn3c2nc(=O)c2ccccc23)CC1	3.5	–	–	–	–	–	–	IC50 [1]: 7.3 µM
O=c1nc2n(c3ccccc13)CC/C2=C\N1CCCC1	5.8	–	–	–	–	–	–	IC50 [1]: 9.6 µM; Kd [3]: 2.3 µM
O=c1nc2n(c3ccccc13)CC/C2=C\c1ccoc1	3.7	–	–	–	–	–	–	–
CC(C)(C)OC(=O)N1CCN(/C=C2\CCn3c2nc(=O)c2ccccc23)CC1	3.7	–	–	–	–	–	–	–
CN1CCCN(/C=C2\CCn3c2nc(=O)c2ccccc23)CC1	2.5	–	–	–	–	–	–	IC50 [1]: 22 µM
CCN1CCN(/C=C2\CCn3c2nc(=O)c2c(Cl)cccc23)CC1	9.2	5.6	4.8	4.1	4	1.4	0.9	K [3]: 7.05 ×10⁶ /M; Kd [3]: 0.142 µM; solubility [12]: soluble
O=c1nc2n(c3cccc(Cl)c13)CC/C2=C\C1CCCCC1	6.6	2	2.5	1.6	2.7	0.4	0.7	–
O=c1nc2n(c3ccccc13)CC/C2=C\N1CCCCC1	5	–	–	–	–	–	–	IC50 [1]: 6.2 µM; Kd [3]: 1.2 µM

Continued, in another order:

ΔTm [2] [°C]	ΔTm [4] [°C]	ΔTm [5] [°C]	ΔTm [6] [°C]	ΔTm [13] [°C]	ΔTm [14] [°C]	ΔTm [15] [°C]	Compound	also measured
10.2	5.4	6.6	4.2	4.3	1.3	1.1	CN1CCN(/C=C2\CCn3c2nc(=O)c2c(Cl)cccc23)CC1	K [3]: 8.09 ×10⁶ /M; Activity [7]: inactive; Activity [8]: inactive; Activity [9]: inactive; Activity [10]: inactive; inhibition [11]: Active; solubility [12]: soluble; Kd [16]: 0.417 µM
3.4	–	–	–	–	–	–	CN(C)/C=C1\CCn2c1nc(=O)c1c(O)cccc12	–
1.4	–	–	–	–	–	–	Cc1cccc2c1c(=O)nc1n2CC/C1=C\N(C)C	–
-0.7	–	–	–	–	–	–	COc1cccc2c1c(=O)nc1n2CC/C1=C\N(C)C	–
4.3	–	–	–	–	–	–	CCN(/C=C1\CCn2c1nc(=O)c1ccccc12)CC	–
6.9	–	–	–	–	–	–	CN(C)/C=C1\CCn2c1nc(=O)c1c(Br)cccc12	–
7.3	2.8	3.6	2.5	2.9	0.2	0.6	CCN(/C=C1\CCn2c1nc(=O)c1c(Cl)cccc12)CC	–
1.4	–	–	–	–	–	–	CN(C)/C=C1\CCn2c1nc(=O)c1c(F)cccc12	–
4.4	–	–	–	–	–	–	CCCN(/C=C1\CCn2c1nc(=O)c1ccccc12)CCC	–
6.9	1.4	2.6	1.3	1.2	0.2	0.4	O=c1nc2n(c3cccc(Cl)c13)CC/C2=C\N1CCCC1	–
8.4	3.6	4.4	2.7	2.2	1	0.4	CN(C)/C=C1\CCn2c1nc(=O)c1c(Cl)cccc12	Kd [3]: 0.137 µM
9.8	5.3	6.3	4.3	4.7	0.8	0.9	O=c1nc2n(c3cccc(Cl)c13)CC/C2=C\N1CCCCC1	Kd [3]: 0.127 µM; solubility [12]: soluble
10.2	2.9	3.5	2.5	7.1	3.1	2.7	CCC(/C=C1\CCn2c1nc(=O)c1c(Cl)cccc12)CC	K [3]: 5.88 ×10⁶ /M
6	1.1	1.4	1	1.4	0.7	0.8	CN1CCC(/C=C2\CCn3c2nc(=O)c2c(Cl)cccc23)CC1	–

— ChEMBL document CHEMBL3822370, “Identification and Development of 2,3-Dihydropyrrolo[1,2-a]quinazolin-5(1H)-one Inhibitors Targeting Bromodomains within the Switch/Sucrose Nonfermenting Complex” (J Med Chem, 2016)
